Consider three compounds from US8686036B2, “Methods of controlling heart rate while minimizing and/or controlling hypotension” (Baxter International Inc., priority 2011, dated 2014).

Data set [1] in a line: Superimposition of dog systolic blood pressure results with human meta-analysis (Yu et al.). The class given is in vivo. Particulars: at a given dose, FIG. 13, human data of Yu et al. An excerpt:
The esmolol doses administered to the dogs in the experiments described herein needed to be larger than typical clinical doses used in humans in order to increase repeatability and induce acute hypotension in close to 100% of the dogs by sufficiently increasing the effect level above background noise. To confirm that the results obtained herein with mongrel dogs are clinically relevant, data from the experimental results obtained herein were superimposed with the maximal weighted mean difference in systolic blood pressure results obtained by Yu et al. in a meta-analysis of randomized controlled clinical trials with esmolol hydrochloride (Yu et al., Anesth Analg. 2011 February; 112(2):267-81).

The conditions of data set [2]: cited from earlier work.
The test system of data set [3] is isoproterenol-induced tachycardia. Nature of the data set: Isoproterenol challenge (isoproterenol-induced tachycardia) in dogs after esmolol infusion. Particulars: for reduction in mean arterial pressure: 10 minutes. The class given is in vivo, dog. Here is the method:
The purpose of this experiment was to determine if the attenuated hypotension (as assessed by mean arterial blood pressure end point) observed in Example 2 following administration of the S-isomer was associated with reduced efficacy (i.e., ability to control isoproterenol-induced tachycardia) as compared with the racemic formulations.
One dog was administered a bolus dose of isoproterenol (0.25 μg/kg) to establish a baseline heart rate response (FIG. 6a). Isoproterenol is a non-selective […] adrenergic agonist capable of inducing tachycardia. After a washout period, the racemic formulation (RS) was administered at 90 μg/kg/min for 10 minutes immediately followed by an isoproterenol challenge. After a washout period, the S-isomer formulation (S) was administered at 45 μg/kg/min for 10 minutes immediately followed by another isoproterenol challenge. This protocol was repeated using 150 μg/kg/min S-isomer followed by 300 μg/kg/min racemic formulation (FIG. 6b) then 2000 μg/kg/min racemic formulation followed by 1000 μg/kg/min S-isomer (FIG. 6c).
The experimental protocol was carried out essentially as described in Example 3. In short, each dog was administered racemic esmolol (RS) at the indicated dose for 10 minutes immediately followed by an isoproterenol challenge (a bolus dose of isoproterenol at 0.25 μg/kg). After a washout period, the S-isomer formulation (S) was administered at an equitherapeutic dose for 10 minutes immediately followed by another isoproterenol challenge. This protocol was performed at 90 μg/kg/min RS/45 μg/kg/min S (5 dogs), 300 μg/kg/min RS/150 μg/kg/min S (1 dog), 600 μg/kg/min RS/300 μg/kg/min S (3 dogs), 1000 μg/kg/min RS/500 μg/kg/min S (4 dogs), and 2000 μg/kg/min RS/1000 μg/kg/min S (3 dogs).
In order to better estimate the true differential effect in hypotensive potential between racemic esmolol and the S-isomer of esmolol at the lower dose range, data from other dogs that were not part of the isoproterenol challenge experiments, but were otherwise treated identically, were combined with the data set from FIG. 12A and presented in FIG. 12B. The additional data points were only from those dogs where a stated dose was administered first or where a sufficient wash-out period preceded the stated dose as to avoid any confounding variables. […] Thus, the lack of significant differentiation in mean arterial pressure seen at the lower doses in FIG. 12A was likely due to the relatively smaller sample size and biological variability.

The nature of data set [4]: Anesthetized mongrel dog model of the hypotensive potential of esmolol infusions. The class given is in vivo. Particulars: for decrease in mean arterial pressure (MAP) from pre-infusion baseline, percent change: high dose infusion protocols, FIG. 10: 2000 μg/kg/min RS, 1000 μg/kg/min S, 1000 μg/kg/min R. As for the experimental part: A model system utilizing anesthetized mongrel dogs was established in order to predict the hypotensive potential of esmolol hydrochloride injection in human patients. One dog was administered a formulation containing racemic esmolol hydrochloride at a loading dose of 600 μg/kg/min for 3 minutes followed by a maintenance infusion of 300 μg/kg/min for 10 minutes (referred to as 600RS/300RS) followed by a washout period (FIG. 1). In this and subsequent figures, the duration of infusion of the various medicaments is indicated by a coded horizontal line, parallel to the time axis. This protocol was repeated by administering 2000 μg/kg/min for 3 minutes followed by a maintenance infusion of 1000 μg/kg/min for 10 minutes (referred to as 2000RS/1000RS) and then by administering 400 μg/kg/min for 3 minutes followed by a maintenance infusion of 200 μg/kg/min for 10 minutes (referred to as 400RS/200RS). Mean arterial blood pressure and heart rate were monitored throughout the experiment.
While the doses administered to the dogs in the experiments described herein were larger than typical clinical doses, the doses were administered in order to increase repeatability and induce acute hypotension in close to 100% of the dogs by sufficiently increasing the effect level above background noise. Moreover, relative to esmolol administration in humans, the dog model replicates within experimental error the same dependence of mean arterial blood pressure versus infusion rate. Therefore, the conclusions reached at these relatively higher dose levels in dogs are relevant to minimization of adverse effects at lower doses in humans.
In initial experiments, the hypotensive potential of a composition comprising the S-isomer of esmolol hydrochloride was compared to a composition comprising the racemic formulation. Mean arterial blood pressure, cardiac output, and systemic vascular resistance were monitored throughout the experiments. Cardiac output and systemic vascular resistance were evaluated to understand the cause of the hypotension (i.e., decrease in cardiac output and/or decrease in systemic vascular resistance).
Each of four mongrel dogs was administered increasing doses of esmolol hydrochloride (FIGS. 2-5). Two dogs (D00028 and DG0029) received 150 μg/kg/min of the S-isomer formulation until mean arterial pressure reached a steady state, at which time the animal was immediately switched over to 300 μg/kg/min of the racemic formulation (this protocol is referred to as 150S/300RS in FIGS. 3a and 4a). Once a steady state was reached the infusion was stopped and was followed by a washout period. A similar protocol was repeated in both dogs using 300 μg/kg/min of the S-isomer of esmolol followed by administration of 600 μg/kg/min of the racemic mixture of esmolol (this protocol is 300S/600RS in FIGS. 3b and 4b). A final protocol involved administration of 1000 μg/kg/min of the S-isomer of esmolol followed by administration of 2000 μg/kg/min of the racemic mixture of esmolol followed by 1000 μg/kg/min of the S-isomer of esmolol (this protocol is referred to as 1000S/2000RS/1000S in FIGS. 3c and 4c).
A similar series of protocols were repeated with the other two dogs (DG0027 and DG0030) except the racemic mixture of esmolol was administered before the S-isomer. In other words, 300 μg/kg/min of the racemic mixture of esmolol was administered, followed by administration of 150 μg/kg/min of the S-isomer of esmolol (this protocol is referred to as 300RS/150S in FIGS. 2a and 5a), 600 μg/kg/min of the racemic mixture of esmolol was administered, followed by administration of 300 μg/kg/min of the S-isomer of esmolol (this protocol is referred to as 600RS/300S in FIGS. 2b and 5b), and 2000 μg/kg/min of the racemic mixture of esmolol was administered, followed by administration of 1000 μg/kg/min of the S-isomer of esmolol, and then 2000 μg/kg/min of the racemic mixture of esmolol again (this protocol is referred to as 2000RS/1000S/2000RS in FIGS. 2c and 5c)]. […]

Assay in data set [5]: as above
The class given is in vivo.

The test system of another data set is beta-adrenergic. Particulars: WO 88/01614; cited from earlier work.
[6] abbreviates: Example 1, one dog, 400RS/200RS, 600RS/300RS, 2000RS/1000RS.

Counter-ions that a name gives are not always drawn.

With `COC(=O)CCc1ccc(OCC(O)CNC(C)C)cc1` (racemic) [esmolol hydrochloride, methyl-3-[4-(2-hydroxy-3-isopropylamino)propoxy]phenylpropionate hydrochloride], in data set [1], the “severity of clinical hypotension (systolic blood pressure) in human patients relative to the dog model” value is “more than two times as severe”. Moreover, the “patients who experienced hypotension” value in data set [2] (clinical trials, packaging insert) is on record as 20-50%. Besides, the “acute hypotension in patients of Asian ancestry” value in data set [2] (loading infusion 500 μg/kg body weight per minute, Ko et al.) is reported as “all patients administered this dosage experienced acute hypotension”. Further, the “mean arterial blood pressure response” value in data set [3] (Example 3, one dog, RS 90, 300, 2000 μg/kg/min vs S 45, 150, 1000 μg/kg/min) is recorded as “greater dose-dependent decrease in mean arterial blood pressure relative to the S-isomer”. The “reduction in mean arterial pressure” value in data set [3] (Example 5, infusion rate 1000 μg/kg/min) is “about 20 mmHg”. Further, in data set [4] (setting [6]), the heart rate response entry was “dose-dependent reflex tachycardia” and the “mean arterial blood pressure response” value was “clear dose-dependent decrease in mean arterial blood pressure”. In data set [4] (Example 2, four dogs, 300, 600, 2000 μg/kg/min, before or after the S-isomer), the “mean arterial pressure response” value was “dose-dependent decrease in mean arterial pressure in all four dogs”. Moreover, the “decrease in MAP from end of first infusion to end of second infusion” value in data set [4] (FIG. 11, initial state S-isomer formulation, then RS racemic mixture) is on record as 32%. Further, in data set [4], the “decrease in mean arterial pressure (MAP) from pre-infusion baseline, percent change” value (from here on “decrease … percent change”) turned out to be 40%.

Turning to `COC(=O)CCc1ccc(OC[C@H](O)CNC(C)C)cc1` (single isomer, unassigned) [R-isomer], the “cardiovascular changes following administration” value in data set [5] (Example 4) is listed as “qualitatively identical to those following the administration of the racemic formulation”. Further, the “ability to lower heart rate when experimentally increased” value in data set [4] (Examples 1-4) was “no apparent, inherent ability to lower heart rate”. Besides, in data set [4], the “decrease … percent change” value came to 19%.

`COC(=O)CCc1ccc(OC[C@@H](O)CNC(C)C)cc1.Cl` (single isomer, unassigned) [S-isomer]: the “potency as beta-adrenergic-blocking agent relative to an equivalent amount of the racemic mixture” value in the data set on beta-adrenergic is “about twice”. Besides, the “mean arterial blood pressure at the high dose infusion rate relative to the racemic formulation” value in data set [5] (Example 4, 1000 μg/kg/min S after 2000 μg/kg/min RS) is “improved (or increased)”. For the same compound, in data set [3] (Example 3, 1000 μg/kg/min S-isomer vs 2000 μg/kg/min racemic formulation), the “hypotension (mean arterial blood pressure) at the high infusion rate” value is recorded as “significantly less hypotension relative to the racemic formulation”. In addition, the “efficacy in reducing isoproterenol-induced tachycardia” value in data set [3] (Example 3, equitherapeutic amounts (half the racemic dose)) is “same degree of efficacy in reducing isoproterenol-induced tachycardia as compared with the racemic formulation”; in data set [3] (Example 5, equitherapeutic doses, across all doses), “same degree of efficacy in reducing isoproterenol-induced tachycardia as compared with the racemic formulation”. In data set [3] (Example 5, doses greater than 600 μg/kg/min racemic esmolol/300 μg/kg/min S-isomer formulation), the “hypotensive effect (reduction in mean arterial pressure) vs racemic esmolol” value was “differed significantly”. Also, the “reduction in mean arterial pressure” value in data set [3] (Example 5, equitherapeutic dose 500 μg/kg/min) is on record as “about 10 mmHg”. In addition, the “percent reduction in heart rate following isoproterenol challenge vs racemic esmolol” value in data set [3] (Example 5, equitherapeutic dose (half the racemic dose), all doses, FIG. 12A) is given as “essentially identical”. Moreover, the “difference in mean arterial pressure vs racemic esmolol, pooled data” value in data set [3] (FIG. 12B, 600 μg/kg/min racemic esmolol (7 dogs)/300 μg/kg/min S-isomer (5 dogs)) is “statistically significant difference in mean arterial pressure”. In data set [4] (Example 2, 1000 μg/kg/min S-isomer vs 2000 μg/kg/min racemic mixture), the “hypotension (mean arterial blood pressure) at the high dose infusion protocol” value is “significantly less hypotension relative to the racemic formulation”. In addition, the “mean arterial blood pressure during the 1000S phase” value in data set [4] (Example 2, 2000RS/1000S/2000RS protocol, FIG. 2c) is given as “increased”. Moreover, the “increase in MAP from end of first infusion to end of second infusion” value in data set [4] (FIG. 11, initial state RS racemic mixture, then S-isomer) stood at 34%. For the same compound, the “decrease … percent change” value in data set [4] is 13%.
